Results reported in patent US20090325156A1, “MATERIALS AND METHODS FOR ABCB1 POLYMORPHIC VARIANT SCREENING, DIAGNOSIS, AND TREATMENT” (Government of the United States of America, as Represented …, priority 2005, published 2009).
Where two headings read alike, the source gives them in different places.

Key:
[1] = tested on: patients with T-cell lymphoma; experiment: Baseline corrected QTc interval (ΔQTc) on ECG after FK228 (romidepsin) treatment, by ABCB1 genotype; type: in vivo, human
Method: Complete blood cell counts with differential are obtained immediately prior to FK228 administration and on days 2, 9, and 16 to evaluate FK228-related myelosuppression. Multiple surface electrocardiograms (ECGs) are obtained immediately before FK228 administration, and at 4 hours after the start of FK228 administration, to evaluate the ability of FK228 to delay cardiac repolarization. This effect is manifested on the ECG as prolongation of the QT interval. The QT interval is transformed into the heart-rate independent corrected value known as the QTc interval. Prolongation of the QTc interval is the electrocardiographic finding associated with increased susceptibility to the development of cardiac arrythmias, including ventricular arrhythmias such as Torsade de Pointes. Because measurement of the baseline value is a factor that critically influences the observed variability in the mean QTc interval, values are computed as the mean of multiple ECGs to enhance the precision of the measurement. This computation is performed by collecting drug-free ECGs on three or more different days. The on-study time point for obtaining an ECG are selected to coincide with the maximum plasma concentration of FK228, as recommended in the preliminary FDA concept paper: The Clinical Evaluation Of Qt/Qtc Interval Prolongation And Proarrhythmic Potential For Non-Antiarrhythmic Drugs (Nov. 15, 2002) available at: http://www.fda.gov/ohrms/dockets/ac/03/briefing/pubs %5Cprelim.pdf.
Relationships between various exposure measures, for example, plasma AUC, and hematological and cardiac toxicity are evaluated by sigmoid maximum-effect models. […] Hematological pharmacodynamics are evaluated by analysis of the absolute nadir values of platelet counts or the relative thrombocytopenia, that is, the percent decrease in platelet count. Data are fitted to a sigmoid maximum-effect model based on the modified Hill equation, as follows: E=E0+Emax×[(KP^γ)/(KP^γ+KP50^γ)]. In this equation, E0 is the minimum reduction possible, Emax is the maximum response (fixed to a value of 100), KP is the pharmacokinetic parameter of interest, KP50 the value of the pharmacokinetic parameter predicted to result in half of the maximum response, and γ is the Hill constant, which describes the sigmoidicity of the curve. Models are evaluated for goodness of fit by minimization of sums of the squared residuals and by reduction of the estimated coefficient of variation for fitted parameters. Significance of the relationships are assessed by construction of contingency tables with subsequent chi-squared analysis.
All data are reported as median values with range, unless specified otherwise. Interindividual pharmacokinetic variability is calculated as the coefficient of variation, and expressed as a percentage. Genotype-frequency analysis of Hardy-Weinberg equilibrium is carried out using Clump version 1.9. The linkage between each pair of SNPs is determined in terms of the classical statistic D′. The absolute value for D′ (|D′|) of 1 denotes complete linkage disequilibrium, while a value of 0 denotes complete linkage equilibrium. The effects of the variant genotypes on ΔQTc, relative thrombocytopenia, dose-normalized AUC, apparent oral clearance, half-life, volume of distribution at steady-state are evaluated statistically with the nonparametric Kruskal-Wallis test. A post-hoc distribution-free multiple comparison procedure is performed using the Dunn test with Bonferroni correction to test pairs of median observations. All statistical analyses are performed using the NCSS software program (version 2001; NCSS, Kaysville, Utah). The a priori level of significance is set at 0.05.

[2] = clinical; settings: human, plasma, intravenous; for Vd: Vss, volume of distribution at steady-state
[3] = tested on: patients with T-cell lymphoma; experiment: Hematological toxicity: percentage decrease in platelet count versus FK228 AUC (sigmoid maximum effect model); type: in vivo, human; settings: P<0.001, FIG. 1
Method: Complete blood cell counts with differential are obtained immediately prior to FK228 administration and on days 2, 9, and 16 to evaluate FK228-related myelosuppression. Multiple surface electrocardiograms (ECGs) are obtained immediately before FK228 administration, and at 4 hours after the start of FK228 administration, to evaluate the ability of FK228 to delay cardiac repolarization. This effect is manifested on the ECG as prolongation of the QT interval. The QT interval is transformed into the heart-rate independent corrected value known as the QTc interval. […]
Relationships between various exposure measures, for example, plasma AUC, and hematological and cardiac toxicity are evaluated by sigmoid maximum-effect models. […] Hematological pharmacodynamics are evaluated by analysis of the absolute nadir values of platelet counts or the relative thrombocytopenia, that is, the percent decrease in platelet count. […] Models are evaluated for goodness of fit by minimization of sums of the squared residuals and by reduction of the estimated coefficient of variation for fitted parameters. Significance of the relationships are assessed by construction of contingency tables with subsequent chi-squared analysis.

interindividual variability in drug clearance, percent coefficient of variation (Example 1, 42 patients): approximately 72%
interindividual variability in drug clearance, percent coefficient of variation (Example 2): approximately 72%
clearance ([2]; Clearance, All (N = 74), median): 238 mL/min
clearance ([2]; Clearance, Group 1 (N = 45), median): 252 mL/min
clearance ([2]; Clearance, Group 2 (N = 29), median): 232 mL/min
clearance ([2]; FK228 clearance, Example 1, all 42 patients combined, 4-hour infusion 14 or 18 mg/m^2, mean ± standard deviation): 292 mL/min
half-life ([2]; T1/2, half-life of the terminal phase, All (N = 74), median): 360 min
half-life ([2]; T1/2, half-life of the terminal phase, Group 1 (N = 45), median): 408 min
half-life ([2]; T1/2, half-life of the terminal phase, Group 2 (N = 29), median): 228 min
Vd ([2]; All (N = 74), median): 93.6 L
Vd ([2]; Group 1 (N = 45), median): 129 L
Vd ([2]; Group 2 (N = 29), median): 64.9 L
half-life ([2]; terminal half-life, Example 1, all 42 patients combined, 4-hour infusion 14 or 18 mg/m^2, mean ± standard deviation): 434 ± 180 min
Structure (SMILES): C/C=C1\NC(=O)[C@H]2CSSCC/C=C/[C@H](CC(=O)N[C@H](C(C)C)C(=O)N2)OC(=O)[C@H](C(C)C)NC1=O [FK228, (E)-(1S,4S,10S,21R)-7-[(Z)-ethylidene]-4,21-diisopropyl-2-oxa-12,13-dithia-5,8,20,23-tetraazabicyclo [8,7,6]-tricos-16-ene-3,6,19,22-pentanone]
ΔQTc at four hours ([1]; Example 1, ABCB1 2677GA genotype, n=1): 17.8 ms
ΔQTc at four hours, median ([1]; Example 1, ABCB1 2677GG genotype, n=10): 18.3 ms
ΔQTc at four hours, median ([1]; Example 1, ABCB1 2677GT genotype, n=14): 16.5 ms
ΔQTc at four hours, median ([1]; Example 1, ABCB1 2677T/T genotype, n=4): -5 ms
ΔQTc at four hours, median ([1]; Example 1, carriers of the heterozygote diplotype (2677/3435), n=7): 11.3 ms
ΔQTc at four hours, median ([1]; Example 1, carriers of the homozygote diplotype (2677/3435), n=19): 18.5 ms
ΔQTc at four hours, median ([1]; Example 1, homozygous for the ABCB1 2677TT/3435TT diplotype, n=3): -5.0 ms
ΔQTc at 4 hours, median ([1]; group 1, 0 reference alleles at both ABCB1 2677G>T/A and 3435C>T loci, N=4): -1 ms
ΔQTc at 4 hours, median ([1]; group 1, no reference alleles at the ABCB1 2677G>T/A locus, N=6): -2.0 ms
ΔQTc at 4 hours, median ([1]; group 1, one or more reference alleles at the ABCB1 2677G>T/A locus, N=32): 18.2 ms
ΔQTc at 4 hours, median ([1]; group 1, single reference allele at either ABCB1 2677G>T/A or 3435C>T locus, N=6): 9.7 ms
ΔQTc at 4 hours, median ([1]; group 1, two or more reference allele copy numbers at ABCB1 2677G>T/A and 3435C>T loci, N=28): 18.5 ms
ΔQTc at 4 hours, median ([1]; group 2, 0 or 1 reference alleles at ABCB1 2677G>T/A, N=14): 4 ms
ΔQTc at 4 hours, median ([1]; group 2, more than 1 reference allele at ABCB1 2677G>T/A, N=4): 24.5 ms
association of AUC of FK228 with percentage decrease in platelet count [3]: weakly associated
